According to US10842807B2, “Methods of treating neurodegenerative disorders comprising DNA methyltransferase inhibitors” (Washington University, priority 2016, dated 2020):

Tests used:
[1] = test system: Htt-72Q-expressing primary cortical neurons; experiment: Cell death by nuclear morphology (Hoechst 33342); format: cell-based, mouse; details: vs. Htt-72Q (0 μM)
Description: Mouse primary cortical and striatal neurons from embryonic day (E) 15.5 Swiss Webster mouse fetuses (Taconic) were first plated in the minimal essential medium (MEM) containing 10% FBS, 0.45% glucose, 1 mM sodium pyruvate, 2 mM glutamine, 20 U/ml penicillin and 20 μg/ml streptomycin, for 3 h and then maintained in serum-free Neurobasal medium (Life Technologies) containing NeuroCult™ SM1 neuronal supplement ([…] Technologies), 0.5 mM glutamine and 25 μM glutamate for the first 3 d in a humidified incubator (37° C. in 5% CO2). Half of the medium was replaced with Neurobasal medium with SM1 and 0.5 mM glutamine every 3 days. Primary cortical neurons plated on 96-well flat clear bottom black plates (Corning #3904) at 4×10^4 cells/well were infected with Htt exon1 expression lentivirus (Htt-25Q or Htt-72Q) or control empty vector lentivirus at 5 days in vitro (DIV 5). Primary striatal neurons plated on 96-well plates at 1×10^5 cells/well were infected with Htt exon1 expression lentivirus at DIV 4. Viral copy number was adjusted for transduction of neurons on the basis of titer measured using the Lenti-X qRT-PCR titration kit (Clontech), and equal numbers of viral particles of Htt-25Q and Htt-72Q expressing lentiviruses were used for transduction. For the experiments to test effects of DNMT inhibitors, neurons were treated with inhibitors six hours after Htt lentiviral infection. […]

Htt-72Q mRNA = experiment: qRT-PCR for Htt-72Q (human) mRNA in cortical neurons; format: cell-based, mouse; details: RNA at DIV 10, compared to vehicle (DMSO)
Description: (FIG. 8A) DIV 5 mouse primary cortical neurons were infected with Htt-72Q lentivirus and treated with decitabine or vehicle (DMSO). RNA was prepared at DIV 10 and subjected to qRT-PCR analysis for Htt-72Q (human). β-actin and Hprt were used as reference genes. […] (FIG. 8B) DIV 5cortical neurons were infected with Htt lentivirus and treated with decitabine (0.2 μM) or DMSO. Neurons were fixed at DIV 11-12 and subjected to indirect immunofluorescence with a specific mouse monoclonal Htt antibody EM48, which preferentially detects aggregated mutant protein. Nuclei were labeled with Hoechst 33342. Images were captured using an Operetta high-content imaging system (PerkinElmer) with a 20× objective lens. Bar 100 μm. (FIG. 8C) EM48 immunofluorescence intensity in (FIG. 8B) was quantified using an ImageJ-based macro. […] (FIG. 8D) Cortical neurons transduced and processed as in (FIG. 8A) were directly harvested in SDS sample buffer at DIV 10 and subjected to immunoblotting with anti-Htt EM48 monoclonal antibody. Blot was reprobed with anti-β-actin antibody. Representative immunoblot from 3 independent experiments is shown. […]
RNAs were isolated from cultured neurons 5 days after infection of Htt lentiviruses and mouse brain using the RNeasy Plus Mini Kit (QIAGEN) and RNeasy Plus Universal Mini Kit (QIAGEN), respectively. […] Relative mRNA levels were calculated using the ΔΔCq method.

[2] = test system: mutant Htt aggregates in Htt-72Q-expressing primary cortical neurons; experiment: Mutant Htt aggregates, EM48 immunofluorescence and immunoblotting; format: cell-based, mouse
Description: (FIG. 8A) DIV 5 mouse primary cortical neurons were infected with Htt-72Q lentivirus and treated with decitabine or vehicle (DMSO). […] (FIG. 8B) DIV 5cortical neurons were infected with Htt lentivirus and treated with decitabine (0.2 μM) or DMSO. Neurons were fixed at DIV 11-12 and subjected to indirect immunofluorescence with a specific mouse monoclonal Htt antibody EM48, which preferentially detects aggregated mutant protein. Nuclei were labeled with Hoechst 33342. Images were captured using an Operetta high-content imaging system (PerkinElmer) with a 20× objective lens. Bar 100 μm. (FIG. 8C) EM48 immunofluorescence intensity in (FIG. 8B) was quantified using an ImageJ-based macro. […] (FIG. 8D) Cortical neurons transduced and processed as in (FIG. 8A) were directly harvested in SDS sample buffer at DIV 10 and subjected to immunoblotting with anti-Htt EM48 monoclonal antibody. Blot was reprobed with anti-β-actin antibody. Representative immunoblot from 3 independent experiments is shown. […] Data in (FIG. 8A) and (FIG. 8C) are presented as mean+SEM.
Image capture and quantification of Htt (EM48) immunofluorescence intensity were performed as described for those of NF.

[3] = test system: Bdnf exon IV, exon VI, and IX transcripts in primary cortical neurons from BACHD mice; experiment: qRT-PCR of Bdnf transcripts in BACHD primary cortical neurons; format: cell-based, mouse; details: 0.2 μM for 3.5 days, vs. vehicle
Description: RNA was harvested 5 days later and subjected to qRT-PCR for total Bdnf (coding exon IX) using β-actin and 18S rRNA as reference genes. […] FIG. 3C depicts the schematic of the mouse Bdnf locus and the relative RNA levels of the Bdnf exons. White boxes, non-coding exons; gray box, coding exon. qRT-PCR was performed as in using exon-specific Bdnf primers. […] (FIG. 3G, FIG. 3H) Cortical neurons were co-transduced with lenti viruses expressing Htt and indicated shRNA and processed as in (FIG. 3C). […] (FIG. 3I) Primary cortical neurons from BACHD mice were treated with decitabine (0.2 μM) or vehicle for 3.5 days. qRT-PCR was performed using β-actin as a reference gene. […] Data are presented as mean+SEM.
Mouse primary cortical and striatal neurons from embryonic day (E) 15.5 Swiss Webster mouse fetuses (Taconic) were first plated in the minimal essential medium (MEM) containing 10% FBS, 0.45% glucose, 1 mM sodium pyruvate, 2 mM glutamine, 20 U/ml penicillin and 20 μg/ml streptomycin, for 3 h and then maintained in serum-free Neurobasal medium (Life Technologies) containing NeuroCult™ SM1 neuronal supplement ([…] Technologies), 0.5 mM glutamine and 25 μM glutamate for the first 3 d in a humidified incubator (37° C. in 5% CO2). Half of the medium was replaced with Neurobasal medium with SM1 and 0.5 mM glutamine every 3 days.

[4] = cited from earlier work
cytidine deaminase = molecular target: T1, cytidine deaminase (Homo sapiens, UniProt P32320); details: literature refs 62, 64; cited from earlier work
T1 construct: host or cells: liver (in vivo)
T1 sequence (P32320 whole entry, species assumed): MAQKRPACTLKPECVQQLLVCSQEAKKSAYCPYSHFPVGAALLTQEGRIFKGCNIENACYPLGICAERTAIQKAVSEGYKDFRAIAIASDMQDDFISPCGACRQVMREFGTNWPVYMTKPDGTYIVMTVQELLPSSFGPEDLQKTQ

Nc1ncn([C@H]2C[C@H](O)[C@@H](CO)O2)c(=O)n1 [decitabine, 5-aza-2′-deoxycytidine]
Htt-72Q induced cell death (condensed or fragmented nuclei) [1]: blocked Htt-72Q induced cell death
levels of Htt-72Q mRNA (Htt-72Q mRNA): did not decrease the levels of Htt-72Q mRNA
levels of mutant Htt aggregates (EM48 immunofluorescence intensity) ([2]; 0.2 μM, fixed at DIV 11-12, vs. Htt-72Q-DMSO): significantly decreased the levels of mutant Htt aggregates
aggregated high molecular weight mutant Htt in stacking gel (EM48 immunoblot) ([2]; harvested at DIV 10): could decrease the levels of aggregated high molecular weight mutant Htt
expression of Bdnf exon IV, exon VI, and IX transcripts [3]: increased expression of Bdnf exon IV, exon VI, and IX transcripts
blood-brain barrier crossing ([4]; literature refs 62, 63): reported to cross the blood-brain barrier
in vivo half-life ([4]; literature refs 62, 64): < 20 min
degradation by cytidine deaminase in the liver (cytidine deaminase): degraded rapidly
